Test results reported in US8299296B2, “Spiro compounds and pharmaceutical use thereof” (Japan Tobacco Inc., priority 2007, dated 2012).
Structures can show the parent of a compound that is named as a salt.

What follows are compounds tested against T1, human GPR40 (Homo sapiens, UniProt O14842) (assay: Ca2+ mobilization (FLIPR) in a stable GPR40-expressing cell; GPR40 agonist activity). Conditions: compound concentration corresponding to 50% PosiC, 100% = intracellular calcium level induced by 80 μM palmitic acid.
T1 construct: expressed in transfected cells
T1 sequence (O14842 whole entry): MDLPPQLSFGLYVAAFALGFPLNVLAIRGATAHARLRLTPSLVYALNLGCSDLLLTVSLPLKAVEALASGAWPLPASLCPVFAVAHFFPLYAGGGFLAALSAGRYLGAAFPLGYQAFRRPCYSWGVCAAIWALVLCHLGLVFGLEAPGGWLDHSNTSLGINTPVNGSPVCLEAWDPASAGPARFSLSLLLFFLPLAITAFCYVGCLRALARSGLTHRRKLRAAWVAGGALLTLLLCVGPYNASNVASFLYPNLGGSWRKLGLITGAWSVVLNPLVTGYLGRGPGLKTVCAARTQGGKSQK
Format: cell-based
Experimental: Evaluation of effect of test compounds on Ca^2+ mobilization by using a stable GPR40-expressing cell A stable human GPR40-expressing HEK293 cell was used. A cell suspension was prepared such that the above-mentioned cells were present at 6×10^5 cells/mL in a cell culture medium (D-MEM (Nikken Bio Medical Laboratory) supplemented with 10% (v/v) fetal bovine serum (Biowest) and 1% (v/v) penicillin-streptomycin solution (Invitrogen)). The cell suspension was plated in a 384-well plate (poly-D-lysine coated plate; Falcon) in a volume of 25 μl/well, and the plate was incubated at 37° C. in an atmosphere of 5% CO2 overnight. Each test compound was added to the cell at each concentration as below, and then the change in intracellular calcium level was measured by FLIPR^TETRA (Molecular Devices). Before the FLIPR assay, the following preparative solutions were prepared. First, an assay buffer was prepared for use in the preparation of a fluorescent dye solution and a diluent buffer solution. The assay buffer was prepared by adding 1M HEPES solution (Invitrogen) to Hanks' Balanced Salt Solution (Invitrogen), followed by adjusting the pH to 7.4 with 1M NaOH (Nacalai Tesque). Next, the fluorescent dye solution and the diluent buffer solution were prepared. The fluorescent dye solution was prepared in accordance with the instruction manual attached to Fluo-4NW calcium assay kit (Invitrogen), followed by addition of bovine serum albumin (Sigma) to a final concentration of 0.1% (w/v). The diluent buffer solution was prepared by adding bovine serum albumin (Sigma) to the assay buffer to give a final concentration of 0.1% (w/v). After removing a medium supernatant from the cell culture plate incubated overnight, the fluorescent dye solution was added to the plate in a volume of 25 μl/well. The plate was incubated at 37° C. in an atmosphere of 5% CO2 for 90 minutes to promote the fluorescent dye uptake in the cell. Meanwhile, the test compounds (i.e., the compounds prepared in Examples) dissolved in dimethyl sulfoxide (DMSO; Nacalai Tesque) were diluted with the diluent buffer solution, to prepare each compound solution at each concentration. In addition, a palmitic acid solution was prepared as a positive control solution (hereinafter abbreviated as PosiC). A 40 μl aliquot of each sample solution prepared as above was added to each well of a 384-well polypropylene plate to prepare a compound plate. Finally, after the sufficient uptake of the fluorescent dye in the cell, the cell plate and the compound plate were set to FLIPR^TETRA. After the above pretreatment, the change in intracellular calcium level was measured by FLIPR^TETRA upon addition of 25 μl of each test compound solution at each concentration. The GPR40 agonist activity of each test compound at each concentration was determined as a relative activity level (% PosiC) with the intracellular calcium level induced by 80 μM palmitic acid (a GPR40 agonist) set to 100%. Next, each compound concentration corresponding to 50% PosiC was calculated based on the % PosiC value, to compare between agonist activities of the test compounds. In the tables, “++++” indicates 0.01 μM or more but less than 0.1 μM, “+++” indicates 0.1 μM or more but less than 1 μM, “++” indicates 1 μM or more but less than 10 μM, and “+” indicates 10 μM or more for 50% posiC value. In the tables, “N.T.” indicates “not tested”.

`CC#C[C@@H](CC(=O)O)c1ccc(OCC2CCC3(CCC3)C2)cc1` (mixture of isomers) [Example 118, (3S)-3-[4-(spiro[3.4]oct-6-ylmethoxy)-phenyl]-hex-4-ynoic acid] and `CC#C[C@@H](CC(=O)O)c1ccc(OCC2CCCC3(CCCCC3)C2)cc1` (stereo partly drawn) [Example 29, (3S)-3-[4-(spiro[5.5]undec-2-ylmethoxy)-phenyl]-hex-4-ynoic acid sodium salt] fall in the same range of EC50: 100 to 1000 nM for the first, 100 to 1000 nM for the second.

`O=C(O)CCc1ccc(OCC2=CC3(CCC3)CC2)cc1` [Example 117, 3-[4-(spiro[3.4]oct-5-en-6-ylmethoxy)-phenyl]-propionic acid] and `Cc1cc(OCC2=CC3(CCCC3)CCC2)ccc1CCC(=O)O` [Example 109, 3-[2-methyl-4-(spiro[4.5]dec-6-en-7-ylmethoxy)-phenyl]-propionic acid] fall in the same range of EC50: 1000 to 10000 nM for the first, 1000 to 10000 nM for the second.

`CC#C[C@@H](CC(=O)O)c1ccc(OCC2=C[C@]3(CCC2)CC[C@H](O)C3)cc1` [Example 107, (3S)-3-[4-((2S,5R)-2-hydroxy-spiro[4.5]dec-6-en-7-ylmethoxy)-phenyl]-hex-4-ynoic acid sodium salt] and `CC#C[C@@H](CC(=O)O)c1ccc(OCC2=CC3(CCCCC3)CC2)cc1` [Example 16, (S)-3-[4-(spiro[4.5]dec-1-en-2-ylmethoxy)-phenyl]-hex-4-ynoic acid sodium salt] fall in the same range of EC50: 100 to 1000 nM for the first, 100 to 1000 nM for the second.

`CC1(C)C=CC2(CCCC(COc3ccc(CCC(=O)O)cc3)C2)CC1` (racemic) [Example 53, 3-[4-(9,9-dimethyl-spiro[5.5]undec-7-en-2-ylmethoxy)-phenyl]-propionic acid] and `CC1(C)CCCCC12CCCC(COc1ccc(CCC(=O)O)cc1)C2` (racemic) [Example 56, 3-[4-(7,7-dimethyl-spiro[5.5]undec-2-ylmethoxy)-phenyl]-propionic acid] fall in the same range of EC50: 1000 to 10000 nM for the first, 1000 to 10000 nM for the second.

`CCOC(CC(=O)O)c1ccc(OCC2CCCC3(CCCCC3)C2)cc1` (racemic) [Example 75, 3-ethoxy-3-[4-(spiro[5.5]undec-2-ylmethoxy)-phenyl]-propionic acid] and `CC(C)OC(CC(=O)O)c1ccc(OCC2CCCC3(CCCCC3)C2)cc1` (racemic) [Example 81, 3-isopropoxy-3-[4-(spiro[5.5]undec-2-ylmethoxy)-phenyl]-propionic acid] fall in the same range of EC50: 100 to 1000 nM for the first, 100 to 1000 nM for the second.

`O=C(O)CCc1ccc(OCC2CCCC3(CCCCC3)C2)cc1` (single isomer, unassigned) [Example 88, 3-[4-(spiro[5.5]undec-2-ylmethoxy)-phenyl]-propionic acid (chiral: A)] and `O=C(O)CCc1ccc(OCC2CCC3(CCCCCC3)C2)cc1` (racemic) [Example 21, 3-[4-(spiro[4.6]undec-2-ylmethoxy)-phenyl]-propionic acid] cannot be ordered by EC50: 1000 to 10000 nM for the first, no less than 10000 nM for the second.

First: O=C(O)CCc1ccc(OCC2=CC3(CCCC3)CCC2)c(F)c1 [Example 112, 3-[3-fluoro-4-(spiro[4.5]dec-6-en-7-ylmethoxy)-phenyl]-propionic acid]
Second: O=C(O)CCc1ccc(OCC2=CC3(CCCC3)CCC2)c(O)c1 [Example 110, 3-[3-hydroxy-4-(spiro[4.5]dec-6-en-7-ylmethoxy)-phenyl]-propionic acid]
The EC50 of the first is higher: no less than 10000 nM for the first, 100 to 1000 nM for the second. The second is the more potent here.

`O=C(O)CCc1ccc(OCCC2CCCC3(CCCCC3)C2)cc1` (racemic) [Example 62, 3-[4-(2-spiro[5.5]undec-2-yl-ethoxy)-phenyl]-propionic acid] and `O=C(O)CCc1ccc(OCC2CCCC3(CCCCC3)C2)cc1` (racemic) [Example 46, 3-[4-(spiro[5.5]undec-2-ylmethoxy)-phenyl]-propionic acid] cannot be ordered by EC50: no less than 10000 nM for the first, 1000 to 10000 nM for the second.

`COC1CCC2(CCC(COc3ccc(CCC(=O)O)cc3)CC2)CC1` (racemic) [Example 114, 3-[4-(9-methoxy-spiro[5.5]undec-3-ylmethoxy)-phenyl]-propionic acid] and `O=C(O)CCc1ccc(OCC2CCC3(CCCCC3)CC2)cc1` [Example 57, 3-[4-(spiro[5.5]undec-3-ylmethoxy)-phenyl]-propionic acid] cannot be ordered by EC50: no less than 10000 nM for the first, 1000 to 10000 nM for the second.

`CC#C[C@@H](CC(=O)O)c1ccc(OCC2=CCC3(CCCCC3)C2)cc1` [Example 14, (S)-3-[4-(spiro[4.5]dec-2-en-2-ylmethoxy)-phenyl]-hex-4-ynoic acid sodium salt] and `CC#C[C@@H](CC(=O)O)c1ccc(OCC2CCC3(CCCCC3)CC2)cc1` [Example 24, (S)-3-[4-(spiro[5.5]undec-3-ylmethoxy)-phenyl]-hex-4-ynoic acid] fall in the same range of EC50: 100 to 1000 nM for the first, 100 to 1000 nM for the second.

Compared with `C=CC(CC(=O)O)c1ccc(OCC2CCCC3(CCCCC3)C2)cc1` (racemic) [Example 86, 3-[4-(spiro[5.5]undec-2-ylmethoxy)-phenyl]-pent-4-enoic acid], `CC#CC(CC(=O)O)c1ccc(OCC2CCCC3(CCCCC3)C2)cc1` (racemic) [Example 47, 3-[4-(spiro[5.5]undec-2-ylmethoxy)-phenyl]-hex-4-ynoic acid] is lower in EC50: 1000 to 10000 nM for the first, 100 to 1000 nM for the second. The second is the more potent here.

First: O=C(O)CCc1ccc(OCC2=CC3(CCCC3)CCC2)cc1Cl [Example 108, 3-[2-chloro-4-(spiro[4.5]dec-6-en-7-ylmethoxy)-phenyl]-propionic acid]
Second: CCOC(CC(=O)O)c1ccc(OCC2=CC3(CCCCC3)CCC2)cc1 (racemic) [Example 41, 3-ethoxy-3-[4-(spiro[5.5]undec-1-en-2-ylmethoxy)-phenyl]-propionic acid]
The EC50 of the first is higher: 1000 to 10000 nM for the first, 10 to 100 nM for the second. The second is the more potent here.

First: O=C(O)CC(c1ccccc1)c1ccc(OCC2CCCC3(CCCCC3)C2)cc1 (racemic) [Example 60, 3-phenyl-3-[4-(spiro[5.5]undec-2-ylmethoxy)-phenyl]-propionic acid]
Second: Cn1nnnc1C(CC(=O)O)c1ccc(OCC2CCCC3(CCCCC3)C2)cc1 (racemic) [Example 40, 3-(1-methyl-1H-tetrazol-5-yl)-3-[4-(spiro[5.5]undec-2-ylmethoxy)-phenyl]-propionic acid]
The EC50 of the first is higher: 1000 to 10000 nM for the first, 10 to 100 nM for the second. The second is the more potent here.

`CNC(=O)C(CC(=O)O)c1ccc(OCC2CCCC3(CCCCC3)C2)cc1` (racemic) [Example 65, N-methyl-3-[4-(spiro[5.5]undec-2-ylmethoxy)-phenyl]-succinamic acid] and `CC#C[C@@H](CC(=O)O)c1ccc(OCC2CCCCC23CCCCC3)cc1` (mixture of isomers) [Example 72, (3S)-3-[4-(spiro[5.5]undec-1-ylmethoxy)-phenyl]-hex-4-ynoic acid] fall in the same range of EC50: 1000 to 10000 nM for the first, 1000 to 10000 nM for the second.

First: CC1=CCCC(C)C12CCCC(COc1ccc(CCC(=O)O)cc1)C2 (racemic) [Example 50, 3-[4-(7,11-dimethyl-spiro[5.5]undec-7-en-2-ylmethoxy)-phenyl]-propionic acid]
Second: CC1(C)CCC2(CCCC(COc3ccc(CCC(=O)O)cc3)C2)CC1 (racemic) [Example 54, 3-[4-(9,9-dimethyl-spiro[5.5]undec-2-ylmethoxy)-phenyl]-propionic acid]
The EC50 of the first is lower: 100 to 1000 nM for the first, 1000 to 10000 nM for the second.

`CC#C[C@@H](CC(=O)O)c1ccc(OCC2CCCC3(C=CCCC3(C)C)C2)cc1` (mixture of isomers) [Example 19, (3S)-3-[4-(11,11-dimethyl-spiro[5.5]undec-7-en-2-ylmethoxy)-phenyl]-hex-4-ynoic acid] and `CCOC(CC(=O)O)c1ccc(OCC2=CC3(CCCCC3)CCC2)cc1` (single isomer, unassigned; (-)) [Example 42, (−)-3-ethoxy-3-[4-(spiro[5.5]undec-1-en-2-ylmethoxy)-phenyl]-propionic acid] fall in the same range of EC50: 10 to 100 nM for the first, 10 to 100 nM for the second.
